Reference: the supplement of paper PMC3068080

Assays:
TGFBR1 mRNA [1] = assay: remaining TGFBR1 mRNA relative to control siRNA (off-target knock-down) (fraction of control); quantification method: branched DNA (R1), qPCR (R2); higher = less knock-down
Description: (§1)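 Screen-hit siRNA duplexes (19-mer plus 3' dTdT overhang) were transiently transfected into HaCaT cells in 12-well plates. After 48 h, TGFBR1 and TGFBR2 mRNA were quantified by branched DNA assay (QuantiGene, normalised to HPRT1) or by SYBR qPCR (normalised to HPRT1/SMAD4). Values are the remaining mRNA relative to control-siRNA-transfected cells; 1-2 biological replicates.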

TGFBR2 mRNA [2] = assay: remaining TGFBR2 mRNA relative to control siRNA (off-target knock-down) (fraction of control); quantification method: branched DNA (R1), qPCR (R2); higher = less knock-down
Description: as §1

TGFBR2 mRNA [3] = assay: remaining TGFBR2 mRNA relative to control siRNA (off-target knock-down) (fraction of control); quantification method: branched DNA; higher = less knock-down
Description: as §1

TGFBR1 mRNA [4] = assay: remaining TGFBR1 mRNA relative to control siRNA (off-target knock-down) (fraction of control); quantification method: branched DNA; higher = less knock-down
Description: as §1

Sequence	remaining TGFBR1 mRNA (TGFBR1 mRNA [1])	remaining TGFBR2 mRNA (TGFBR2 mRNA [2])	remaining TGFBR2 mRNA (TGFBR2 mRNA [3])	remaining TGFBR1 mRNA (TGFBR1 mRNA [4])
AACACCAUCUACUUGAUGGTT	1.31	0.78	–	–
AACUGGUUCAGGUACUUCCTT	0.95	0.71	–	–
ACUACGACUCAGUGCCUGGTT	1	0.7	–	–
AGACGGCAAACGACUGUCCTT	1.27	0.75	–	–
AGCUCAAACAGUAUCUGGUTT	1.45	0.7	–	–
AGGAUCAGCAGCCCGUAGCTT	1.52	0.72	–	–
AUCCUGCAGAAUCACGUCCTT	0.93	0.7	–	–
AUGUGUACAGCCCUCUUCCTT	1.84	0.65	–	–
UCAUAGCUCUGGCAUCGUCTT	–	–	0.41	1.11
UCCAAGUCGAGAAGAGACCTT	–	–	0.46	0.9
UCCACGAUGAAGGGAUGCUTT	–	–	0.7	1.06
UCCAGCUGCAUUCCUCGCUTT	–	–	0.35	0.75
UCCAGCUGUUUCGUUCCUCTT	–	–	0.36	0.85
UCCAUGGAUGCAGAAGUCCTT	–	–	0.56	0.96
UCCCGUACUGGUUCUGGGGTT	–	–	0.81	1.1
UCCUGGAAGUUUGACGUCCTT	–	–	1.41	0.88
UCCUUGGUCCAUUAGGAGATT	–	–	0.22	0.61
UCCUUGGUCUCAUCUGCCUTT	–	–	0.43	1.05
UCCUUGGUGUAUUCUAACATT	–	–	0.42	0.93

Sequence	remaining TGFBR1 mRNA (TGFBR1 mRNA [1])	remaining TGFBR2 mRNA (TGFBR2 mRNA [2])	remaining TGFBR2 mRNA (TGFBR2 mRNA [3])	remaining TGFBR1 mRNA (TGFBR1 mRNA [4])
UCCUUGUCCUUGGACAGUGTT	–	–	0.24	1.14
UCUACCCAGAACUCCACGATT	–	–	1.01	0.14
UCUCAUUUACCCUUUGGGGTT	–	–	0.33	0.67
UCUCGGAGGCAGUUCCAGCTT	–	–	0.82	0.86
UCUGCAACGUAGAGGUUAUTT	–	–	0.79	0.22
UCUGGUCUCAGCCAUUGAATT	–	–	1.08	0.26
UCUUGGCUUUGACACCGAGTT	–	–	0.39	0.48
UGAAGACAGUCCUAUGGACTT	–	–	0.97	0.42
UGAAUAACCCUCUGGACAGTT	–	–	0.83	0.45
UGAUAGCACCAACACAAAGTT	–	–	0.74	0.44
UGAUGUUGAUCUGGGGCACTT	–	–	0.54	0.55
UGAUGUUGUCUUGUCUGGUTT	–	–	0.42	0.44
UGCAGUGAUAAAGGCUACATT	–	–	0.67	0.34
UGCAUUGGCUCCCACUUCATT	–	–	0.33	0.26
UGCGUUUACGGUUCACACGTT	–	–	0.6	0.69
UGCUUAUCUCAUCUGAAGCTT	–	–	0.28	0.93
UGCUUGAGUAGUGCUAGUUTT	–	–	0.58	0.71
UGGAAGACGCUUUAAAGGCTT	–	–	0.48	0.85
